Values of other authors as cited in US20230339900A1, “CASEIN KINASE 1 DELTA MODULATORS” (Janssen Pharmaceutica NV, priority 2020, published 2023).
Where two headings read alike, the source gives them in different places.

How the values were obtained:
[1] = ob/ob and diet-induced obese mouse, daily administration; cited from earlier work
[2] = test system: circadian rhythms; conditions: in vivo locomotor activity of a variety of species; cited from earlier work
[3] = test system: circadian rhythms; conditions: cellular reporter assays; cited from earlier work

## Nc1nccc(-c2c(-c3ccc(F)cc3)ncn2C2CCN(Cc3ccon3)CC2)n1 [PF-5006739]
[1]
  effect on glucose tolerance: improve glucose tolerance
[2]
  effect on circadian rhythms: significantly lengthened circadian rhythms
[3]
  effect on circadian rhythms: significantly lengthened circadian rhythms
